The values that follow come from publication PMC11003925, “Antimicrobial activity and properties of de novo design of short synthetic lipopeptides” (Folia Microbiologica, 2024).

≈ marks a conversion by molar mass, not a printed value. Residues, ends and D or L forms follow the SMILES beside them. *: point of attachment. Palmitoyl = CCCCCCCCCCCCCCCC(=O)*

In test [1] the test system is C. tropicalis DBM 2166. The test is classed as cell-based, Candida tropicalis.
In test [2] the test system is A. baumannii DBM 3183. Put plainly: microbe, parasite or virus in culture. Type of test: cell-based, Acinetobacter baumannii. As to conditions: DBM 3183, 25 h.
Test [3] has as its system Staph. aureus DBM 3002. The test is classed as cell-based, Staphylococcus aureus.
The test system of test [4] is Staph. aureus MRSA1. Type of test: cell-based, Staphylococcus aureus.
Test [5] concerns Ps. aeruginosa DBM 3081. Type of test: cell-based, Pseudomonas aeruginosa. As to conditions: 25 h.
Test [6] has as its system B. subtilis DBM 3006. Type of test: cell-based, Bacillus subtilis.
Test [7] relates to M. luteus DBM 3053. Type of test: cell-based, Micrococcus luteus.
The subject of test [8] is bacterial membrane. The test is described as follows: Membrane disruption (released lactate dehydrogenase activity). The test is classed as cell-based, Staphylococcus aureus. As to conditions: 1 h incubation at 37 °C, LDH kit, triplets. On the procedure:
The disruption of the microbial membrane was followed by the detection of lactate dehydrogenase activity released from the intracellular space using a Cytotoxicity Detection Kit (LDH) from Roche (Korzeniewski and Callewaert [1983]; Macurkova et al. [2014]) after 1 h incubation at 37 °C with the PAL/LCA-peptide. The culture supernatant was collected and incubated with the reaction mixture from the kit. In the first step, NAD^+ is reduced to NADH + H^+ by the LDH-catalyzed conversion of lactate to pyruvate. In the second step, the catalyst (diaphorase) transfers H/H^+ from NADH + H^+ to the tetrazolium salt 2-(4-iodophenyl)-3-(4-nitrophenyl)-5-phenyl-2H-tetrazolium chloride (INT), which is reduced to formazan. The formazan dye formed is red and water-soluble and gives a broad absorption maximum at 500 nm. An increase in the amount of dead or plasma membrane-damaged cells results in an increase in the LDH activity in the cell culture supernatant.
To determine the degree of damage to the cell membrane (%) by the tested substances, averages of absorbances (triplets) were calculated from the measured values for the samples, controls, and pure medium. Subsequently, the absorbance average for the clean medium (background) was subtracted from all averages obtained in this way. The degree of damage to the cell membrane by the tested substances was expressed as follows: membranedamage%=((AVZ-∅ANK)/(∅APK-ANK))∙100 ∅AVZ⋯averageabsorbanceofsample ∅ANK⋯averageabsorbanceofnegativecontrol ∅APK⋯averageabsorbanceofpositivecontrol

The subject of test [9] is E. faecalis DBM 3075. Type of test: cell-based.
In test [10] the test system is E. coli DBM 3001. The test is classed as cell-based.
The test system of test [11] is Staph. aureus MRSA1. Type of test: cell-based, Staphylococcus aureus. As to conditions: 24 h, 2. On the procedure: This assay was used to determine how quick the effect of PAL/LCA-peptides is on bacteria, as well as whether the activity of these compounds is dependent on the presence of active bacterial metabolism (Kamysz et al. [2007]). The bacterial cultures were incubated overnight at 37 °C in Mueller–Hinton’s broth 2 or potassium phosphate buffer (0.1 M, pH 7). Cultures were diluted to OD600 equal to 0.1 and divided into 2 samples, and the final volume of each sample was 1 mL; after that, they were centrifuged (5000 × g, 10 min) to collect bacteria. […] The samples were incubated at 37 °C. At specific time intervals, samples of bacterial suspension were taken, diluted, and spread on Petri dishes with Mueller–Hinton’s agar to count the number of surviving cells as colony-forming units (CFU). The whole experiment lasted 24 h.

Turning to `CCCCCCCCCCCCCCCC(=O)N[C@@H](CC(C)C)C(=O)N[C@H](C(=O)N[C@@H](CCCCN)C(=O)N[C@@H](CCCNC(=N)N)C(=O)N[C@@H](C)C(=O)NCC(N)=O)C(C)C` [SHP-1.2, PAL-LVKRAG-NH2] (Palmitoyl-LVKRAG-NH2), the MIC in test [1] (DBM 2166, 24 h) worked out at 55.9 µg/mL (≈ 63.5 µM); in test [3] (24 h), 27.7 µg/mL (≈ 31.5 µM); in [4] (24 h), 7.8 µg/mL (≈ 8.86 µM); in [6] (DBM 3006, 24 h), 16.9 µg/mL (≈ 19.2 µM); in test [7] (DBM 3053, 24 h) it was 6.4 µg/mL (≈ 7.27 µM); in test [9] (DBM 3075, 24 h), 32.6 µg/mL (≈ 37 µM). Moreover, the minimal inhibitory concentration (MIC) in test [10] (DBM 3001, 24 h) is reported as 78.9 µg/mL (≈ 89.6 µM). Besides, the IC50 in [1] (DBM 2166, 25 h) stood at 100.0 µg/mL (≈ 114 µM); in test [2], 60.0 µg/mL (≈ 68.2 µM); in test [3] (25 h) it was 50.0 µg/mL (≈ 56.8 µM); in test [4] (25 h) it was 12.5 µg/mL (≈ 14.2 µM); in [5], 60.0 µg/mL (≈ 68.2 µM); in test [6] (DBM 3006, 25 h), 25.0 µg/mL (≈ 28.4 µM). In addition, the IC50 worked out at 10.0 µg/mL (≈ 11.4 µM) in test [7] (DBM 3053, 25 h); 40 µg/mL (≈ 45.4 µM) in test [9] (DBM 3075, 25 h); 100.0 µg/mL (≈ 114 µM) in [10] (DBM 3001, 25 h). The “Membrane damage (%)” value in test [8] (KP (potassium phosphate buffer)) is listed as 32 ± 4%; in test [8] (MHB (Mueller–Hinton broth II)), 26 ± 3%. The “bacteria killed within half an hour” value in test [11] came out at 100%.

A word on the MIC: it is the smallest concentration in the dilution series that meets the test's criterion for growth inhibition. A word on the IC50: it is the concentration at which inhibition is half-maximal. A high value points to a need for much substance.
